This is an account of results in patent US6335168B1 (priority 1998, dated 2002).

In the assay the test system is A118G variant human mu opioid receptor. It is filed as cell-based. To be noted: GIRK activation in oocytes.

With β-endorphin, the “difference of EC50 values between the A118G variant and the most common mu opioid receptors” value was “about three”.
